Reference: patent publication US20060014790A1, “Methods of treatment of amyloidosis using spirocyclohexane aspartyl-protease inhibitors” (priority 2004, published 2006)
Where “and” joins values, the source holds several entries; their conditions need not be identical. Identical values can stand only once.

Each molecule was assayed against catE / beta-secretase (BACE) (assay: CatE/BACE selectivity (ratio of IC50 values)). Conditions: each value is an average of four experimental runs; multiple values = more than one experiment.
Type: biochemical
Protocol: (§1) Selectivity was calculated as a ratio of inhibition (IC50) values in which the inhibition of beta-secretase was compared to the inhibition of other aspartyl proteases.
Selectivity is reported as the ratio of IC50(catE):IC50(BACE).
(§2) In the following examples, each value is an average of four experimental runs and multiple values for one compound indicate that more than one experiment was conducted.

SMILES | IC50 catE/IC50 BACE
COC1CCC(NCC(O)C(Cc2cc(F)cc(F)c2)NC(C)=O)(c2cccc(C(C)(C)C)c2)CC1 (single isomer, unassigned) [196B-3 Diastereomer A, N-[3-[1-(3-tert-Butyl-phenyl)-4-methoxy-cyclohexylamino]-1-(3,5-difluoro-benzyl)-2-hydroxy-propyl]-acetamide] | 1.8 and 1.5
COC1CCC(NCC(O)C(Cc2cc(F)cc(F)c2)NC(C)=O)(c2cccc(C(C)(C)C)c2)CC1 (single isomer, unassigned) [196B-4 Diastereomer B, N-[3-[1-(3-tert-Butyl-phenyl)-4-methoxy-cyclohexylamino]-1-(3,5-difluoro-benzyl)-2-hydroxy-propyl]-acetamide] | 1.5
CONC1CCC(NCC(O)C(Cc2cc(F)cc(F)c2)NC(C)=O)(c2cccc(C(C)(C)C)c2)CC1 (single isomer, unassigned) [196B-11 Diastereomer A, N-(4-(1-(3-tert-butylphenyl)-4-(methoxyamino)cyclohexylamino)-1-(3,5-difluorophenyl)-3-hydroxybutan-2-yl)acetamide] | 7.4
CONC1CCC(NCC(O)C(Cc2cc(F)cc(F)c2)NC(C)=O)(c2cccc(C(C)(C)C)c2)CC1 (single isomer, unassigned) [196B-12 Diastereomer B, N-(4-(1-(3-tert-butylphenyl)-4-(methoxyamino)cyclohexylamino)-1-(3,5-difluorophenyl)-3-hydroxybutan-2-yl)acetamide] | 12.5
CSC1CCC(NCC(O)C(Cc2cc(F)cc(F)c2)NC(C)=O)(c2cccc(C(C)(C)C)c2)CC1 (single isomer, unassigned) [196B-14 Diastereomer A, N-[3-[1-(3-tert-Butyl-phenyl)-4-methylsulfanyl-cyclohexylamino]-1-(3,5-difluoro-benzyl)-2-hydroxy-propyl]-acetamide] | 5.5 and 3.4 and 2.9
CSC1CCC(NCC(O)C(Cc2cc(F)cc(F)c2)NC(C)=O)(c2cccc(C(C)(C)C)c2)CC1 (single isomer, unassigned) [196B-15 Diastereomer B, N-[3-[1-(3-tert-Butyl-phenyl)-4-methylsulfanyl-cyclohexylamino]-1-(3,5-difluoro-benzyl)-2-hydroxy-propyl]-acetamide] | 2.4 and > 2.5 and 2.3

These molecules were tested against catD / beta-secretase (BACE) (assay: CatD/BACE selectivity (ratio of IC50 values)). Conditions: each value is an average of four experimental runs; multiple values = more than one experiment.
Type: biochemical
Protocol: as §1, §2

SMILES | IC50 catD/IC50 BACE
CCc1cccc(C2(NCC(O)C(Cc3cc(F)cc(F)c3)NC(C)=O)CCOCC2)c1 (stereo not drawn) [Example 196A-1, N-{1-(3,5-Difluoro-benzyl)-3-[4-(3-ethyl-phenyl)-tetrahydro-pyran-4-ylamino]-2-hydroxy-propyl}-acetamide] | 3.0 and 2.3 and 2.7
CC(=O)NC(Cc1ccc(O)cc1)C(O)CNC1(c2cccc(C(C)C)c2)CCCCC1 (stereo not drawn) [Example 196A-2, N-{2-Hydroxy-1-(4-hydroxy-benzyl)-3-[1-(3-isopropyl-phenyl)-cyclohexylamino]-propyl}-acetamide] | 3.6 and 4.1 and 3.9
CC(=O)NC(Cc1cccc(F)c1)C(O)CNC1(c2cccc(C(C)C)c2)CCCCC1 (stereo not drawn) [Example 196A-4, N-{1-(3-Fluoro-benzyl)-2-hydroxy-3-[1-(3-isopropyl-phenyl)-cyclohexylamino]-propyl}-acetamide] | 1.1
CC(=O)NC(Cc1cc(F)cc(F)c1)C(O)CNC1(c2cccc(C(C)C)c2)CCC2(CC1)OCCO2 (stereo not drawn) [Example 196A-6, N-{1-(3,5-Difluoro-benzyl)-2-hydroxy-3-[8-(3-isopropyl-phenyl)-1,4-dioxa-spiro[4.5]dec-8-ylamino]-propyl}-acetamide] | 11.4
CC(=O)NC(Cc1cc(F)cc(F)c1)C(O)CNC1(c2cccc(C(C)C)c2)CCS(=O)(=O)CC1 (stereo not drawn) [Example 196A-9, N-{1-(3,5-Difluoro-benzyl)-2-hydroxy-3-[4-(3-isopropyl-phenyl)-1,1-dioxo-hexahydro-1l6-thiopyran-4-ylamino]-propyl}-acetamide] | 1.4
CC(=O)NC(Cc1cc(F)cc(F)c1)C(O)CNC1(c2cccc(C(C)C)c2)CCN(C(C)=O)CC1 (stereo not drawn) [Example 196A-10, N-[3-[1-Acetyl-4-(3-isopropyl-phenyl)-piperidin-4-ylamino]-1-(3,5-difluoro-benzyl)-2-hydroxy-propyl]-acetamide] | 3.2
CC(=O)NC(Cc1cc(F)cc(F)c1)C(O)CNC1(c2cccc(C(C)C)c2)CCN(S(C)(=O)=O)CC1 (stereo not drawn) [Example 196A-11, N-{1-(3,5-Difluoro-benzyl)-2-hydroxy-3-[4-(3-isopropyl-phenyl)-1-methanesulfonyl-piperidin-4-ylamino]-propyl}-acetamide] | 12.7
CC(=O)NC(Cc1cc(F)cc(F)c1)C(O)CNC1(c2cccc(C(C)C)c2)CCN(C(=O)C(F)(F)F)CC1 (stereo not drawn) [Example 196A-12, N-{1-(3,5-Difluoro-benzyl)-2-hydroxy-3-[4-(3-isopropyl-phenyl)-1-(2,2,2-trifluoro-acetyl)-piperidin-4-ylamino]-propyl}-acetamide] | 1.1
CC(=O)NC(Cc1cc(F)cc(F)c1)C(O)CNC1(c2cccc(C(C)C)c2)CCN(C=O)CC1 (stereo not drawn) [Example 196A-13, N-{1-(3,5-Difluoro-benzyl)-3-[1-formyl-4-(3-isopropyl-phenyl)-piperidin-4-ylamino]-2-hydroxy-propyl}-acetamide] | 33.5
CCS(=O)(=O)N1CCC(NCC(O)C(Cc2cc(F)cc(F)c2)NC(C)=O)(c2cccc(C(C)(C)C)c2)CC1 (stereo not drawn) [Example 196A-15, N-[3-[4-(3-tert-Butyl-phenyl)-1-ethanesulfonyl-piperidin-4-ylamino]-1-(3,5-difluoro-benzyl)-2-hydroxy-propyl]-acetamide] | 13.1
CC(=O)NC(Cc1cc(F)cc(F)c1)C(O)CNC1(c2cccc(-c3ccsc3)c2)CCC(=O)CC1 (stereo not drawn) [Example 196A-19, N-(1-(3,5-difluorophenyl)-3-hydroxy-4-(4-oxo-1-(3-(thiophen-3-yl)phenyl)cyclohexylamino)butan-2-yl)acetamide] | 4.4
CC(=O)NC(Cc1cc(F)cc(F)c1)C(O)CNC1(c2cccc(C(C)(C)C)c2)CCCN(C)C1 (stereo not drawn) [Example 196A-40, N-(4-(3-(3-tert-butylphenyl)-1-methylpiperidin-3-ylamino)-1-(3,5-difluorophenyl)-3-hydroxybutan-2-yl)acetamide] | >2,0
CC(=O)NC(Cc1cc(F)cc(F)c1)C(O)CNC1(c2cccc(Br)c2)CCC2(CC1)OCCO2 (stereo not drawn) [Example 196A-47, N-[3-[8-(3-Bromo-phenyl)-1,4-dioxa-spiro[4.5]dec-8-ylamino]-1-(3,5-difluoro-benzyl)-2-hydroxy-propyl]-acetamide] | 1.7
CC(=O)NC(Cc1cc(F)cc(F)c1)C(O)CNC1(c2cccc(C(C)(C)C)c2)CCC(C#N)CC1 (stereo not drawn) [Example 196A-48, N-[3-[1-(3-tert-Butyl-phenyl)-4-cyano-cyclohexylamino]-1-(3,5-difluoro-benzyl)-2-hydroxy-propyl]-acetamide] | 1.7
CC(=O)NC(Cc1cc(F)cc(F)c1)C(O)CNC1(c2cccc(-c3ccsc3)c2)CCC(=O)CC1 (stereo not drawn) [Example 196A-49, N-{1-(3,5-Difluoro-benzyl)-2-hydroxy-3-[4-oxo-1-(3-thiophen-3-yl-phenyl)-cyclohexylamino]-propyl}-acetamide] | 4.4
